Test [1] has as its target 5-HT2A (Homo sapiens, UniProt P28223). Description: Receptor binding activity, 5-HT2A. Particulars: binding to 5-HT2A, methods of WO/2009/145900. The method, then:
(§1) Binding to 5HT2A, D2 and SERT is assessed, using the methods described in WO/2009/145900. The compounds of Examples 1 and 2 are found to have potent binding to 5-HT2A, SERT and D2, with affinity constants in the sub-micromolar range: […]

The target of test [2] is D2 (Homo sapiens, UniProt P14416). Kind of test: Receptor binding activity, D2. Particulars: binding to D2, methods of WO/2009/145900. The method, then:
as §1

In test [3] the target is SERT (Homo sapiens, UniProt P31645). Description: Receptor binding activity, SERT. The following applies: binding to SERT, methods of WO/2009/145900. The method, then: as §1

These results are taken from patent US9428506B2, “Substituted pyrido[3′,4′:4,5]pyrrolo[1,2,3-de]quinoxalines for the treatment of nervous system disorders” (INTRA-CELLULAR THERAPIES, INC., priority 2012, dated 2016).

SERT, sequence (P31645 whole entry, species assumed): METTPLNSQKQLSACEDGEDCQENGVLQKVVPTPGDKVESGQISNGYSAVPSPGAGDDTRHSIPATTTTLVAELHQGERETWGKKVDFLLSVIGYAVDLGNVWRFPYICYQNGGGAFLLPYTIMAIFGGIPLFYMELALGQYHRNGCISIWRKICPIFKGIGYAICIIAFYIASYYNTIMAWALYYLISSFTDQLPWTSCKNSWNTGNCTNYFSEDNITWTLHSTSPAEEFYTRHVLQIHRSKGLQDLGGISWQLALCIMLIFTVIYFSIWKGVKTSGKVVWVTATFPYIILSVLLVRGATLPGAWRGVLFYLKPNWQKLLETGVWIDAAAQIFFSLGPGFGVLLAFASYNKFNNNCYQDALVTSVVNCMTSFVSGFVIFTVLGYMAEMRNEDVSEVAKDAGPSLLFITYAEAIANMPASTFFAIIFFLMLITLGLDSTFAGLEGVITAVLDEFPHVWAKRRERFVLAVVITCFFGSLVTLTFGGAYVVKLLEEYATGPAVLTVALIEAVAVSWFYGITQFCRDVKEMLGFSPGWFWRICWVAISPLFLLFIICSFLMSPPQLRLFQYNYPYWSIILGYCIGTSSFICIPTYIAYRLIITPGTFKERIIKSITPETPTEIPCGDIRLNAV
D2, sequence (P14416 whole entry): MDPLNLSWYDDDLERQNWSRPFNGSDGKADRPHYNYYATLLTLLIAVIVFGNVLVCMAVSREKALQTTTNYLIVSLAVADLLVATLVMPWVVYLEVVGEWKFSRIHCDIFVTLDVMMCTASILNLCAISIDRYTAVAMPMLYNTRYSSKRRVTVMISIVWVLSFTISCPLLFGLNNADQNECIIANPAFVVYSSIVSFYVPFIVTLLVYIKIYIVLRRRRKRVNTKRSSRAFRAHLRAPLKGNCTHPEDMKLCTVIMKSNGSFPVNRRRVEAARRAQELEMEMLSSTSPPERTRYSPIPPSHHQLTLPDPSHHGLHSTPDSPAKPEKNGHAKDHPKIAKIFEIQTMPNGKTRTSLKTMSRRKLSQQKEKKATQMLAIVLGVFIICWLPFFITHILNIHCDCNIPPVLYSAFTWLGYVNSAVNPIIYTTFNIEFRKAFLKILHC
5-HT2A, sequence (P28223 whole entry, species assumed): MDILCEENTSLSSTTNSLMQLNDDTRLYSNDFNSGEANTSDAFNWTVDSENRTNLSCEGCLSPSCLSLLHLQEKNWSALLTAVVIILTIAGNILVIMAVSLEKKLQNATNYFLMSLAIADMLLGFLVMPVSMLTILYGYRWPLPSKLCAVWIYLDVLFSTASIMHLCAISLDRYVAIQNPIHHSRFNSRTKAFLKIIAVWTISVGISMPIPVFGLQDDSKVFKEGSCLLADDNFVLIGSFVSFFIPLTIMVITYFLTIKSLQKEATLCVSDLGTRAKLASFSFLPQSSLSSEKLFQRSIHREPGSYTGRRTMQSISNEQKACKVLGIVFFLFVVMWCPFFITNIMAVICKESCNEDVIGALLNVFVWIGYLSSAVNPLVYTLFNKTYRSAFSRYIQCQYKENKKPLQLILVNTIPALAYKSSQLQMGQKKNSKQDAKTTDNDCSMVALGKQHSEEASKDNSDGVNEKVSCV

As a reminder, the Ki is the dissociation constant of the complex between target and ligand, obtained from inhibition or displacement. A low value points to a stronger hold on the target. As to `CN1CCN2c3c(cccc31)[C@@H]1CN(CCCC(C)(O)c3ccc(F)cc3)CC[C@@H]12` (stereo partly drawn) [Ex. 1, 2-(4-Fluoro-phenyl)-5-((6bR,10aS)-3-methyl-2,3,6b,9,10,10a-hexahydro-1H,7H-pyrido[3′,4′:4,5]pyrrolo[1,2,3-de]quinoxalin-8-yl)-pentan-2-ol], the Ki in test [1] worked out at 350 nM; in test [2], 740 nM; in test [3] it was 520 nM.

Consider `COC(CCCN1CC[C@H]2[C@@H](C1)c1cccc3c1N2CCN3C)c1ccc(F)cc1` (stereo partly drawn) [Ex. 2, (6bR,10aS)-8-[4-(4-Fluoro-phenyl)-4-methoxy-butyl]-3-methyl-2,3,6b,7,8,9,10,10a-octahydro-1H-pyrido[3′,4′:4,5]pyrrolo[1,2,3-de]quinoxaline], for which the Ki in test [1] was determined as 96 nM; in test [2], 810 nM; in test [3] it was 300 nM.
